Measured values taken from ChEMBL document CHEMBL4270488, “Antibacterial Compounds from Marine Bacteria, 2010-2015” (J Nat Prod, 2017).
Converted amounts (≈) assume the structure as drawn. *1 amine or outer side, *2 acyl side, *3 side chain or, on linkers, in order; H or OH if unused. Where a SMILES comes first, the peptide text is derived from it. Bridges are numbered along the chain shown (N, C = ends). Roman numbers before positions name the chains, in order. [ ]: non-standard residue; d: D form. Actinocin(1to9) = Cc1c2oc3c(C)ccc(C(=O)[*:2])c3nc-2c(C(=O)[*:1])c(N)c1=O; Pro(4-oxo) = O=C1CN[C@H](C(=O)O)C1; NMeV = CN[C@H](C(=O)O)C(C)C; Sar = CNCC(=O)O

Tests used:
[1] = tested on: Mycobacterium tuberculosis variant bovis; assay: Antibacterial activity against Mycobacterium bovis BCG str. Pasteur 1173P2 incubated for 16 hrs; assay type: functional
[2] = tested on: Mycobacterium tuberculosis variant bovis; assay: Antibacterial activity against Mycobacterium bovis BCG str. Pasteur 1173P2 incubated for 3 days by GFP based fluorescence assay; assay type: functional; details: 72 h

Structure (SMILES)	MIC [1] [mg/L]	MIC [2] [mg/L]
COC(=O)N[C@H]1[C@@H](C)O[C@@H](O[C@H]2C/C=C(\C)[C@@H]3C=C[C@@H]4[C@@H](O[C@H]5C[C@@H](O[C@H]6C[C@@H](O)[C@@H](O[C@@H]7C[C@@H](O)[C@@H](OC)[C@H](C)O7)[C@H](C)O6)[C@@H](O)[C@H](C)O5)[C@@H](C)C[C@H](C)[C@H]4[C@]3(C)C(=O)C3=C(O)[C@@]4(C[C@@H](C)C(CO)=C[C@H]4/C=C/2C)OC3=O)C[C@]1(C)N	0.8 to 1.5 (≈ 0.691 to 1.3 µM)	–
Cc1c2oc3c(C)ccc(C(=O)N[C@@H]4C(=O)N[C@H](C(C)C)C(=O)N5CCC[C@H]5C(=O)N(C)CC(=O)N(C)[C@@H](C(C)C)C(=O)O[C@@H]4C)c3nc-2c(C(=O)N[C@@H]2C(=O)N[C@H](C(C)C)C(=O)N3CC(=O)C[C@H]3C(=O)N(C)CC(=O)N(C)[C@@H](C(C)C)C(=O)O[C@@H]2C)c(N)c1=O (I: T[dV][Pro(4-oxo)][Sar][NMeV] / II: T[dV]P[Sar][NMeV]; ester I:1-I:C, II:1-II:C; linker I:N-II:N via Actinocin(1to9))	–	0.2 to 0.5 (≈ 0.158 to 0.394 µM)
COC(=O)N[C@H]1[C@@H](C)O[C@@H](O[C@H]2C/C=C(\C)[C@@H]3C=C[C@@H]4[C@@H](O[C@H]5C[C@@H](O[C@H]6C[C@@H](O)[C@@H](O[C@@H]7C[C@@H](O)[C@@H](OC)[C@H](C)O7)[C@H](C)O6)[C@@H](O)[C@H](C)O5)[C@@H](C)C[C@H](C)[C@H]4[C@]3(C)C(=O)C3=C(O)[C@@]4(C[C@@H](C)C(CO)=C[C@H]4/C=C/2C)OC3=O)C[C@]1(C)[N+](=O)[O-]	0.8 to 1.5 (≈ 0.674 to 1.26 µM)	–
Cc1c2oc3c(C)ccc(C(=O)N[C@@H]4C(=O)N[C@H](C(C)C)C(=O)N5CCC[C@H]5C(=O)N(C)CC(=O)N(C)[C@@H](C(C)C)C(=O)O[C@@H]4C)c3nc-2c(C(=O)N[C@@H]2C(=O)N[C@H](C(C)C)C(=O)N3CC(O)C[C@H]3C(=O)N(C)CC(=O)N(C)[C@@H](C(C)C)C(=O)O[C@@H]2C)c(N)c1=O (stereo not given in full)	–	0.2 to 0.5 (≈ 0.157 to 0.393 µM)
Cc1c2oc3c(C)ccc(C(=O)N[C@@H]4C(=O)N[C@H](C(C)C)C(=O)N5CCC[C@H]5C(=O)N(C)CC(=O)N(C)[C@@H](C(C)C)C(=O)O[C@@H]4C)c3nc-2c(C(=O)N[C@@H]2C(=O)N[C@H](C(C)C)C(=O)N3CCC[C@H]3C(=O)N(C)CC(=O)N(C)[C@@H](C(C)C)C(=O)O[C@@H]2C)c(N)c1=O [DACTINOMYCIN] (I: T[dV]P[Sar][NMeV] / II: T[dV]P[Sar][NMeV]; ester I:1-I:C, II:1-II:C; linker I:N-II:N via Actinocin(1to9))	–	0.2 to 0.5 (≈ 0.159 to 0.398 µM)
